One block for each compound: values may come before it.
What was measured:
Sprague-Dawley rats [1] = experiment: Rat allodynia/hyperalgesia pain model after capsaicin; type: in vivo
Procedure: This test is to determine the extent of protection by a test compound to neuropathic pain sensations. With the rat standing on an elevated perforated floor, mechano-allodynia is measured by applying from beneath a graded series of von Frey hairs to the mid-plantar region of the effected paws. The hair that evokes at least one withdrawal response is designated the threshold level when compared to the sham treated nerve. Alternatively, the paw can be illuminated with a noxious radiant heat and the time to paw withdrawal is measured.
The model is described by Bennett, Neuro. Report 5, 1438-1440 (1994), and references cited therein. He measures changes in withdrawal latency after chronic constriction injury; a rat is prepared by bilaterally exposing the sciatic nerves on both thighs. On one side, loosely fitting constrictive ligatures are tied around the nerve; the other side is sham manipulated but not ligated. The model can also be used to measure increases in sensitivity and decreases in latency after injection of an irritating or pain inducing substance such as capsaicin or carrageenan.
A total of 40 adult male Sprague-Dawley rats, 250-300 g, were used. Baseline measures of withdrawal responses evoked by heat and mechanical stimuli were determined for each hind paw and obtained for at least 4 consecutive days until withdrawal and latency responses were stable. Four groups of 10 rats each were sorted to establish equivalent baseline mean responses to heat and mechanical stimuli. Each group was randomly assigned to 1 of 4 treatment conditions: vehicle, 10, 50, or 100 mg/kg compound i.p. On test day, withdrawal responses to heat and mechanical stimuli were measured before intraperitoneal injection of the treatment condition. […] Capsaicin (10 μl of 0.1%, intraplantar) was administered 30 minutes after i.p. injection. Withdrawal responses to heat and mechanical stimuli were again measured 5 and 30 minutes post capsaicin. The contralateral paw served as an internal control. The experimenter was blind to the treatment condition.
The prodrugs were tested in the allodynia model after inducing pain with capsaicin.
A total of 24 adult male Sprague-Dawley rats, 250-300 g., were used and treated according to protocol described above using (2S,4R)-4-methyl glumatic acid methyl ester.
A total of 33 adult male Sprague-Dawley rats, 250-300 g., were treated according to protocol described above using (2S,4R)-4-methyl glumatic acid ethyl ester. The concentrations of the compound were […].

[2] = Prodrug hydrolysis to the acid form in plasma; type: in vitro ADME
Excerpt: The ester bond in any of the disclosed prodrug compositions can be readily cleaved in vivo. Therefore, prodrug compositions of Formula I can be hydrolyzed to the corresponding acids form in plasma.

Sprague-Dawley rats [3] = experiment: Rat allodynia/hyperalgesia pain model after capsaicin; type: in vivo; conditions: 1 hour before capsaicin
[4] = system: AMPA receptor as compared to the kainate receptor; conditions: selectivity ratio; cited from earlier work
[5] = target: glycine site of the NMDA receptor (Homo sapiens, UniProt Q05586); conditions: cited from earlier work
[6] = cited from earlier work

melting point: 138 to 139 °C
Structure (SMILES): COC(=O)[C@H](N)C[C@H](C)C(=O)OC.Cl

melting point: 158 to 160 °C
Structure (SMILES): CCOC(=O)[C@H](N)C[C@H](C)C(=O)OCC.Cl

Structure (SMILES): C[C@H](C[C@H](N)C(=O)O)C(=O)O [Compound 1, (2S,4R)-4-Methyl glutamic acid]
blocking hyperalgesia to heat (Sprague-Dawley rats [1]; 10, 50, 100 mg/kg i.p., capsaicin): effective
blocking mechanical hyperalgesia (Sprague-Dawley rats [1]; 10, 50, and 100 mg/kg i.p., capsaicin intraplantar 30 minutes after injection): effective
mechanical hyperalgesia versus vehicle (p<0.05) (Sprague-Dawley rats [1]; 5 minutes post capsaicin, all doses (10, 50, 100 mg/kg i.p.)): significantly different from vehicle
hyperalgesia to heat versus vehicle (Sprague-Dawley rats [1]; 30 minute time point): not significantly different from vehicle
mechanical hyperalgesia versus vehicle (p<0.05) (Sprague-Dawley rats [1]; 30 minutes post capsaicin, 100 mg/kg i.p. only): remained significantly different from vehicle
hyperalgesia to heat versus vehicle (p<0.05) (Sprague-Dawley rats [1]; all three doses (10, 50, 100 mg/kg i.p.), early time point): significantly different from vehicle

melting point: 138 to 139 °C
hydrolysis to (2S,4R)-4-methyl glutamic acid (1) [2]: readily hydrolyzed
Structure (SMILES): COC(=O)[C@H](C)C[C@H](N)C(=O)OC.Cl [Compound 2, (2S,4R)-4-Methyl Glutamic Acid Dimethyl Ester Hydrochloride]
hyperalgesia to mechanical stimuli (p<0.05) (Sprague-Dawley rats [1]; 10 mg/kg i.p., capsaicin): reduced
hyperalgesia to radiant heat (p<0.05) (Sprague-Dawley rats [1]; 10 mg/kg i.p., capsaicin): reduced
prevention of development of hyperalgesia (Sprague-Dawley rats [3]; 0.1 mg/kg i.p.): no effect
hyperalgesia prevention (Sprague-Dawley rats [3]; 1 mg/kg i.p.): about 40%
prevention of development of hyperalgesia (Sprague-Dawley rats [3]; 10 and 50 mg/kg i.p.): totally prevented

melting point: 158 to 160 °C
Structure (SMILES): CCOC(=O)[C@H](C)C[C@H](N)C(=O)OCC.Cl [Compound 3, (2S,4R)-4-Methyl Glutamic Acid Diethyl Ester Hydrochloride]
blocking hyperalgesia to heat (Sprague-Dawley rats [1]; 0.1 to 50 mg/kg i.p., capsaicin): not effective
blocking mechanical hyperalgesia (p<0.05) (Sprague-Dawley rats [1]; 10 and 50 mg/kg i.p., capsaicin): effective

Structure (SMILES): NS(=O)(=O)c1cccc2c3c(cc([N+](=O)[O-])c12)=NC(=O)C(=O)N=3 [NBQX, 6-nitro-7-sulfamoylbenzoquinoxaline-2,3-dione]
affinity for AMPA receptor as compared to kainate receptor [4]: thirty
binding to glycine site of NMDA receptor [5]: non-specifically binds
solubility in water [6]: very limited
